In ChEMBL document CHEMBL5653615 (J Biol Chem, 2013):

Legend:
[1] = biological target: T1, cGMP-dependent protein kinase 2 (Homo sapiens) (UniProt Q13237); test: Inhibition of human PRKG2 at 18.6 nM by HotSpot assay relative to control
T1 sequence (whole entry): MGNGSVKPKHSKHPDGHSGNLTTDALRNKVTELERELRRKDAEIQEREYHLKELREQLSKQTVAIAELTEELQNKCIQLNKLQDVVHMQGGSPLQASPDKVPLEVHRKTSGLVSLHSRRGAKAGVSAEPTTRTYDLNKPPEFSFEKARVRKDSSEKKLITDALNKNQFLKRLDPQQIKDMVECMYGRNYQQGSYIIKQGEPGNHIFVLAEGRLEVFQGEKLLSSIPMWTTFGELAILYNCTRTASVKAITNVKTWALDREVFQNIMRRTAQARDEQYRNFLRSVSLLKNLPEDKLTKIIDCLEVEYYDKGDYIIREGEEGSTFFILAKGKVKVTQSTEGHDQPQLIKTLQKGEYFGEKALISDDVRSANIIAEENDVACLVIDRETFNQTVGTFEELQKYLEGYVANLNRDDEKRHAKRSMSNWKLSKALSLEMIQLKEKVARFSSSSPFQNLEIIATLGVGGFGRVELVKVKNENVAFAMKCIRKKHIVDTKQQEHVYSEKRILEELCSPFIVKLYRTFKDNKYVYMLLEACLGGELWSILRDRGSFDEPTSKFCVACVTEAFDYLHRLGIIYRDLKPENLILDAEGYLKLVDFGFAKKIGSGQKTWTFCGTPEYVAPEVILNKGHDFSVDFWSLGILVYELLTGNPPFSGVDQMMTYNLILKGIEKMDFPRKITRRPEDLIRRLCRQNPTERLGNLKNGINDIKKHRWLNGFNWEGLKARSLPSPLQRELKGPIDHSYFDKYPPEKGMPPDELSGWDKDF

[2] = biological target: Fibroblast growth factor receptor 1 (Homo sapiens) (UniProt P11362); test: Inhibition of human FGFR1 at 18.6 nM by HotSpot assay relative to control
[3] = biological target: Serine/threonine-protein kinase PAK 2 (Homo sapiens) (UniProt Q13177); test: Inhibition of human PAK2 at 18.6 nM by HotSpot assay relative to control
[4] = biological target: Serine/threonine-protein kinase 16 (Homo sapiens) (UniProt O75716); test: Inhibition of human STK16 at 18.6 nM by HotSpot assay relative to control
[5] = biological target: T2, Lymphokine-activated killer T-cell-originated protein kinase (Homo sapiens) (UniProt Q96KB5); test: Inhibition of human TOPK at 18.6 nM by HotSpot assay relative to control
T2 sequence (whole entry): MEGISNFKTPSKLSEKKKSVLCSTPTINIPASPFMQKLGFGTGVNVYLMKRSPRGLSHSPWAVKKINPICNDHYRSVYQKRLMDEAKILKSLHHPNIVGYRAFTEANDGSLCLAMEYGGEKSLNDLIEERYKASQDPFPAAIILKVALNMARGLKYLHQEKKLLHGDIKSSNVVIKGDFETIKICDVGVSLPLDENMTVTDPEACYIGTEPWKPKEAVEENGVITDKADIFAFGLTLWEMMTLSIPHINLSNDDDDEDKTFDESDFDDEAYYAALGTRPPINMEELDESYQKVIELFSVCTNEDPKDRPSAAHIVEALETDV

[6] = biological target: Ephrin type-A receptor 4 (Homo sapiens) (UniProt P54764); test: Inhibition of human EPHA4 at 18.6 nM by HotSpot assay relative to control
[7] = biological target: T3, Testis-specific serine/threonine-protein kinase 1 (Homo sapiens) (UniProt Q9BXA7); test: Inhibition of human TSSK1 at 1.82 nM by HotSpot assay relative to control
T3 sequence (whole entry): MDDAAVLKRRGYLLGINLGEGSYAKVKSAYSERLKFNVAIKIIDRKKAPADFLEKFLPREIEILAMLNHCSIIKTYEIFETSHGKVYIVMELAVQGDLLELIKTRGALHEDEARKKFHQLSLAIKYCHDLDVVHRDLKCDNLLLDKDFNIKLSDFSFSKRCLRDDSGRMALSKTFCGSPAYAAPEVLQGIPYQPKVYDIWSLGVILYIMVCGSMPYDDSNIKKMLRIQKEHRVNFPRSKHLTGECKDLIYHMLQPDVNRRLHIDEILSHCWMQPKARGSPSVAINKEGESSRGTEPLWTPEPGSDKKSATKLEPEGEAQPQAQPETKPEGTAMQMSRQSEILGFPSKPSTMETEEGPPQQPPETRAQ

[8] = biological target: Tyrosine-protein kinase Srms (Homo sapiens) (UniProt Q9H3Y6); test: Inhibition of human SRMS at 1.82 nM by HotSpot assay relative to control
[9] = biological target: Mitogen-activated protein kinase kinase kinase 10 (Homo sapiens) (UniProt Q02779); test: Inhibition of human MAP3K10 at 1.82 nM by HotSpot assay relative to control
[10] = biological target: T4, Serine/threonine-protein kinase BRSK1 (Homo sapiens) (UniProt Q8TDC3); test: Inhibition of human BRSK1 at 1.82 nM by HotSpot assay relative to control
T4 sequence (whole entry): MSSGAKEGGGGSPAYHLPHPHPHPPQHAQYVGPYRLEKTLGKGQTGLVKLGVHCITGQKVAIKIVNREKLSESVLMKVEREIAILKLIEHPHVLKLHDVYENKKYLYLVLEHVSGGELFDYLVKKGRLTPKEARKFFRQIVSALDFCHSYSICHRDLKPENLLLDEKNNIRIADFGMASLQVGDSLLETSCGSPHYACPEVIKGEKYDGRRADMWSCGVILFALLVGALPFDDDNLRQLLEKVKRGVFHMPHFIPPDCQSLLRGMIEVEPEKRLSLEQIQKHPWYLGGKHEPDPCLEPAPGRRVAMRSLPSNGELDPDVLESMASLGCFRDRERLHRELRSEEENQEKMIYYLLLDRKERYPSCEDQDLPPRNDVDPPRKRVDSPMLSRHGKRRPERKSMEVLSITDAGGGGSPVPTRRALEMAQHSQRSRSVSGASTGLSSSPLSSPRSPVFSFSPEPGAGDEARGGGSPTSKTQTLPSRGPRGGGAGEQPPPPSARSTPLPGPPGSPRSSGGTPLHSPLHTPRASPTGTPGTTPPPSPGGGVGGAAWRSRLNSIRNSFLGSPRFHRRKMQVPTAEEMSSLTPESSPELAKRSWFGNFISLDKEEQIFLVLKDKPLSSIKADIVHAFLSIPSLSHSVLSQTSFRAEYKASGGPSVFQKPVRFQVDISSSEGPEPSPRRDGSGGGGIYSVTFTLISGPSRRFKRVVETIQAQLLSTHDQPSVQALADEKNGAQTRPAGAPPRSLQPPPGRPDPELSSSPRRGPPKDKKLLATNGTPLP

[11] = biological target: Vascular endothelial growth factor receptor 1 (Homo sapiens) (UniProt P17948); test: Inhibition of human FLT1 at 1.82 nM by HotSpot assay relative to control
[12] = biological target: RAF proto-oncogene serine/threonine-protein kinase (Homo sapiens) (UniProt P04049); test: Inhibition of human RAF1 at 1.82 nM by HotSpot assay relative to control
Sequence of RAF proto-oncogene serine/threonine-protein kinase (Homo sapiens) (P04049 whole entry): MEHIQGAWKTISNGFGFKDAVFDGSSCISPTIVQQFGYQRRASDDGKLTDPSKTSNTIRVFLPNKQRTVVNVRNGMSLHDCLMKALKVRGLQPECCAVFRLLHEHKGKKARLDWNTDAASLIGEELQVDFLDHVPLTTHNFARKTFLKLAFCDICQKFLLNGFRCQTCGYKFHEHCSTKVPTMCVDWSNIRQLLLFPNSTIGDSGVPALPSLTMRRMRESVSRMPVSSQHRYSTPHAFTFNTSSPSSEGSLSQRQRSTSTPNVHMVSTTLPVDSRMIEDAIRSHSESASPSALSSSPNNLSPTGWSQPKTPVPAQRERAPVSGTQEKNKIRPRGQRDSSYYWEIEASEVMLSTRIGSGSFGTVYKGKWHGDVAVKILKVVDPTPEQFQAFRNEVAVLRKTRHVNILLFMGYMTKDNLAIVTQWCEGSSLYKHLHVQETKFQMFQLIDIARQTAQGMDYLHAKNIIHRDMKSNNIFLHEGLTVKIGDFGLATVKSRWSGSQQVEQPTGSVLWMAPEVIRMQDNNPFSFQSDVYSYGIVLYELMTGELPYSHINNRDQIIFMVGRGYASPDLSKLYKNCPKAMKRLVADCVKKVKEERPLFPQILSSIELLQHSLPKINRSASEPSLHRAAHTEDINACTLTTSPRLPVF

Sequence of Serine/threonine-protein kinase 16 (Homo sapiens) (O75716 whole entry): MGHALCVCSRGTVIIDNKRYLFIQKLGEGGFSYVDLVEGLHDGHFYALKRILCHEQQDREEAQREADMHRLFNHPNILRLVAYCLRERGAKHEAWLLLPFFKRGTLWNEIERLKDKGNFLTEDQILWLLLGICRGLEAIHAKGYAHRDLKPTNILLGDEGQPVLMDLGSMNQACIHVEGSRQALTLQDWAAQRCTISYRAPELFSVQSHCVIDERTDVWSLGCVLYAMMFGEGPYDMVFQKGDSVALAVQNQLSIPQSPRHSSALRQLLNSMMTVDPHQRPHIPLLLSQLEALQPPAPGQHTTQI
Sequence of Mitogen-activated protein kinase kinase kinase 10 (Homo sapiens) (Q02779 whole entry, looked up): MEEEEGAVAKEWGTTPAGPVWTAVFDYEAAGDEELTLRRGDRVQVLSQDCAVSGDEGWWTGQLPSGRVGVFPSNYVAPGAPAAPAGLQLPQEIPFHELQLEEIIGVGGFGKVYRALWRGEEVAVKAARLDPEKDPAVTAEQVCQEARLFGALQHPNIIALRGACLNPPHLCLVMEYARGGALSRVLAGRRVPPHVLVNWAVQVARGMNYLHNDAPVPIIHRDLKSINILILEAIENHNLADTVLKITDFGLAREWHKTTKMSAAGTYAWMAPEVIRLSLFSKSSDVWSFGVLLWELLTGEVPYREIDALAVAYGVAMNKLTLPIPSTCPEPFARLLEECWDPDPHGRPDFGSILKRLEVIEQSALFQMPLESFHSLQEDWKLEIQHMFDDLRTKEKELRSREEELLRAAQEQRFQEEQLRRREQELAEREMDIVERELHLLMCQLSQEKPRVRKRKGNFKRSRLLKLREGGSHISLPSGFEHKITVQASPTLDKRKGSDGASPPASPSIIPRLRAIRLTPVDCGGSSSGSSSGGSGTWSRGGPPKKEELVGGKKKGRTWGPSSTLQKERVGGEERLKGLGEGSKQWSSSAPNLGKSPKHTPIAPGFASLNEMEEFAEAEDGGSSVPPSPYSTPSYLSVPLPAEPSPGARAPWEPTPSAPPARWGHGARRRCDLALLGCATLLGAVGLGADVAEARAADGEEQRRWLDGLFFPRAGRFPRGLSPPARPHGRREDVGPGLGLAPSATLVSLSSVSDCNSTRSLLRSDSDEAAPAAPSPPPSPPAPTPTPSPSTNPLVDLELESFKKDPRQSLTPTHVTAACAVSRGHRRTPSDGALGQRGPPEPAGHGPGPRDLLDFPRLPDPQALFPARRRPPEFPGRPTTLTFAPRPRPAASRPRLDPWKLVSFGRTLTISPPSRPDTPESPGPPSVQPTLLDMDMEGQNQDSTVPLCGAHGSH
Sequence of Fibroblast growth factor receptor 1 (Homo sapiens) (P11362 22-822 limits assumed): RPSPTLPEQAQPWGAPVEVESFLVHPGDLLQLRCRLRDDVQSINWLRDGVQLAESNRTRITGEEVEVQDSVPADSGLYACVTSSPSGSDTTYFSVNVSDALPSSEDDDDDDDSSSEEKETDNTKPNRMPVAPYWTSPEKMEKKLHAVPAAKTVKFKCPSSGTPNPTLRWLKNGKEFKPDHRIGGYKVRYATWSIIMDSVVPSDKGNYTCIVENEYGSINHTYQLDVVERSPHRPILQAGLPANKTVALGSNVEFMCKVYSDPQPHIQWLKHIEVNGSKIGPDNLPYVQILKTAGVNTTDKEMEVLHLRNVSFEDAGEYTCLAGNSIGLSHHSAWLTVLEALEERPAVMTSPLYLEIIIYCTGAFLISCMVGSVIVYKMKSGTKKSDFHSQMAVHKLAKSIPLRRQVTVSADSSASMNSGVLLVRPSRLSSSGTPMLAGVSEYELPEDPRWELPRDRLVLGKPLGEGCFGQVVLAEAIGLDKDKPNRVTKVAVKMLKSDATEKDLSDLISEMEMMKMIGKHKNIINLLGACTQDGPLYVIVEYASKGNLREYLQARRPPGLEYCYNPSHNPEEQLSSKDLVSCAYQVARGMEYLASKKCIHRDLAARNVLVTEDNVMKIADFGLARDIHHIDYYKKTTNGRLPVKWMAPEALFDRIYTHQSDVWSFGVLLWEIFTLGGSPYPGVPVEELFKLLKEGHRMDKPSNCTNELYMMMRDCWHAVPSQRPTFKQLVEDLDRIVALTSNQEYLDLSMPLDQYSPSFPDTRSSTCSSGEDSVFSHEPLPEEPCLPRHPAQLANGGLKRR
Sequence of Serine/threonine-protein kinase PAK 2 (Homo sapiens) (Q13177 whole entry): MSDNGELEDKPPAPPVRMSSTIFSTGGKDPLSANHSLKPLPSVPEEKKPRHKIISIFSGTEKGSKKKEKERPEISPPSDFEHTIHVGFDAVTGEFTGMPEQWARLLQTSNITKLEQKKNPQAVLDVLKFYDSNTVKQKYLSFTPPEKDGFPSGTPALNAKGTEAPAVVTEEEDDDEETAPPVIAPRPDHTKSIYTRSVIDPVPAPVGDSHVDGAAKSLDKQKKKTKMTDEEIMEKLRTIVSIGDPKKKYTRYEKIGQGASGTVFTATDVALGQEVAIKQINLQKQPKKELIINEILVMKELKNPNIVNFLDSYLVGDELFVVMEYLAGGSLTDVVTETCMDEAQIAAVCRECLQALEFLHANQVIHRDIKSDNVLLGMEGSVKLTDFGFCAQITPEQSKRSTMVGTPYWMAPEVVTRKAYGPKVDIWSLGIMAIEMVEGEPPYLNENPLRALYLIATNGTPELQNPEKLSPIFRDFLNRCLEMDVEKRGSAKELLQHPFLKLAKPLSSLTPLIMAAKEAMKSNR
Sequence of Tyrosine-protein kinase Srms (Homo sapiens) (Q9H3Y6 whole entry): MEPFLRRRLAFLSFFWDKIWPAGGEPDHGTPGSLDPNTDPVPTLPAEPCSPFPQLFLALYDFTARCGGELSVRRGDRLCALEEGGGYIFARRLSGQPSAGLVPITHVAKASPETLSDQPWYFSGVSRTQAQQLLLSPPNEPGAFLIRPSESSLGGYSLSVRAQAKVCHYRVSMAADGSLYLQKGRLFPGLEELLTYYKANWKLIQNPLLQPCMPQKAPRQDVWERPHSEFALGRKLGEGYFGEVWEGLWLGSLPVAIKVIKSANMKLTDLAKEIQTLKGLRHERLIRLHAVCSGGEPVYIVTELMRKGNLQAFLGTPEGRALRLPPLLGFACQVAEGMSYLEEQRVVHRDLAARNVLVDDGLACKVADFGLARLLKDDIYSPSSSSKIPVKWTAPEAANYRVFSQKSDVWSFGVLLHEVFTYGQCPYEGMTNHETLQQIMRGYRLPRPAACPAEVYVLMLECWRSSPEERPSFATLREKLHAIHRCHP
Sequence of Vascular endothelial growth factor receptor 1 (Homo sapiens) (P17948 whole entry): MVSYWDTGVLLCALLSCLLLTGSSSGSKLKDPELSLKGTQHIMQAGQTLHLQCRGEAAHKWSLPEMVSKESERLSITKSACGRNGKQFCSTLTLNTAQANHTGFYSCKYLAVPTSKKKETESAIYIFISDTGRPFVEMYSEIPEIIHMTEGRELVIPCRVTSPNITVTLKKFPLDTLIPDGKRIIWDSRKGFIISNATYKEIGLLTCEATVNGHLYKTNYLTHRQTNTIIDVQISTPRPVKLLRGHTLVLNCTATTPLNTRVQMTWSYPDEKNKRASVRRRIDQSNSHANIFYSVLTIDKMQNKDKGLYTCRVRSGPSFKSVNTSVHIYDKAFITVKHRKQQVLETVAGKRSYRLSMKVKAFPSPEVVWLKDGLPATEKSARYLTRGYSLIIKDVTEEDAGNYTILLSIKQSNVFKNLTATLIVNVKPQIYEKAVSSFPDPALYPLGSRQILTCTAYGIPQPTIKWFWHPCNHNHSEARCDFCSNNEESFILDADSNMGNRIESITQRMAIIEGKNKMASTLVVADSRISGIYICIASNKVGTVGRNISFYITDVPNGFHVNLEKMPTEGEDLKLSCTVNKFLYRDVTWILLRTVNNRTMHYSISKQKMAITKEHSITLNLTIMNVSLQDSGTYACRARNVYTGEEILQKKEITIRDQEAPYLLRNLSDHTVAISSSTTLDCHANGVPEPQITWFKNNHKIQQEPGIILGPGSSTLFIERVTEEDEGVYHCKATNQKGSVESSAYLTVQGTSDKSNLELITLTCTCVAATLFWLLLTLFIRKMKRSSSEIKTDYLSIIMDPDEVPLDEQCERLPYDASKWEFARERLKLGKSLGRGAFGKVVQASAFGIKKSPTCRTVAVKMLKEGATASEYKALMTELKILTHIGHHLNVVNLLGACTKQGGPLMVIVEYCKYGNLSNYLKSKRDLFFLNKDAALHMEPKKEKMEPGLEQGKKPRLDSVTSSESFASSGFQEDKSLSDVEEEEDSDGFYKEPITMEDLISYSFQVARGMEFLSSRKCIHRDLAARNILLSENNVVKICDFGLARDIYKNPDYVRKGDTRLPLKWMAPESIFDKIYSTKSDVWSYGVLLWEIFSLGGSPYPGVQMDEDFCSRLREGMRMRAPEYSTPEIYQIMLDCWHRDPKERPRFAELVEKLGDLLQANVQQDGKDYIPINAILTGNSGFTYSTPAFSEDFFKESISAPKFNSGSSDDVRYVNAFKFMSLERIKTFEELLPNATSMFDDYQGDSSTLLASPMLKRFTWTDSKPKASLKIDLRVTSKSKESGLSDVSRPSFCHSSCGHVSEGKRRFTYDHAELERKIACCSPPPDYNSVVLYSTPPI

inhibition [1]	inhibition [2]	inhibition [3]	inhibition [4]	inhibition [6]	inhibition [7]	inhibition [8]	inhibition [9]	inhibition [10]	inhibition [11]	inhibition [12]	SMILES	inhibition [5]
-3.76%	-8.13%	-7.87%	-0.38%	-8.39%	–	–	–	–	–	–	C[C@]1(O)C[C@@H](c2nc(-c3ccc4ccc(-c5ccccc5)nc4c3)c3c(N)nccn32)C1	1.57%
–	–	–	–	–	4.11%	-3.77%	-1.81%	-0.42%	-4.89%	-9.08%	C[C@@]1(C(=O)Nc2ccc(F)nc2)CCCN1c1nc(Nc2cc(C3CC3)n[nH]2)c2cccn2n1	–
